Measured values: publication PMC8045006 (Heliyon, 2021)
“Also recorded” adds a separate entry of the source. Where two headings read alike, the source gives them in different places.

Key:
[1] = molecular target: T1, Electrical (Torpedo californica) AChE (type VI-S) (Electrophorus electricus, UniProt O42275); experiment: biochemical; format: biochemical
T1 construct: purchased Sigma-Aldrich (Steinheim, Germany) type VI-S
Procedure: (§1) Fluka provided potassium hydroxide, sodium hydrogen carbonate, potassium dihydrogen phosphate, and dipotassium hydrogen phosphate. Sigma-Aldrich (Steinheim, Germany) provided BuChE (E.C.3.1.1.8, from equine serum), Electrical ([…]) AChE (type VI-S), acetylthiocholine iodide, 5,5⸍-dithiobis [2-nitrobenzoic acid]
(§2) In order to set the derivatives’ stock solutions, they were dissolved in the dimethyl sulfoxide (DMSO). Then, we diluted them in the absolute ethanol for obtaining 3 varying concentrations for assay. The experiments were done in triplicate for each concentration. The assay solution included […], […] of phosphate buffer (0.1M, pH = 8), […] of 5 IU/mL butryl cholinesterase solution, and […] of inhibitor. Afterwards, the product was pre-incubated at 25 ᵒC for 10 min. Then, […] of butyrylthiocholine iodide was added as the substrate to the 24 wells for starting the reaction. […] For justifying non-enzymatic reaction, we conducted assays with a blank having all components except ButChE.
Moreover, AChE took the same assay for obtaining the derivatives’ anti-AChE activity.

[2] = molecular target: T2, BuChE (E.C.3.1.1.8, from equine serum) (Equus caballus, UniProt P81908); experiment: biochemical; format: biochemical
T2 construct: BuChE (E.C.3.1.1.8, from equine serum); purchased Sigma-Aldrich (Steinheim, Germany); host or cells: equine serum
T2 sequence (P81908 whole entry): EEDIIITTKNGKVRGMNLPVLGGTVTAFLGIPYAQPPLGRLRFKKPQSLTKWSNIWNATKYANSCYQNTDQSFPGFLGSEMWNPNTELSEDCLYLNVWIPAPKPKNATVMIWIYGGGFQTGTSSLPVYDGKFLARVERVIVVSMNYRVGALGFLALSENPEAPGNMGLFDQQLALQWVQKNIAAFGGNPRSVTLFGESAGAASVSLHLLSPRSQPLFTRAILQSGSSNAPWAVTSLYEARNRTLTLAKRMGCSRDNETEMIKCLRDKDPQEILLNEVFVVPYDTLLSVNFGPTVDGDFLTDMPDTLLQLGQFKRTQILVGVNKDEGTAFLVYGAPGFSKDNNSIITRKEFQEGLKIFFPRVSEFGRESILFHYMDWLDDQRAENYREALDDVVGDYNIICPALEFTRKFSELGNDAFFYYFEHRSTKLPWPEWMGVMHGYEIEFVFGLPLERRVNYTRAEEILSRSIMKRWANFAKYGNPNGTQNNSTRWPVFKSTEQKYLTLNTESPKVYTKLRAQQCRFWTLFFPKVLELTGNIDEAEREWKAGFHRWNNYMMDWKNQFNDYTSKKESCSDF
Procedure: as §1
as §2, with “ButChE. […]” for “ButChE.”

[3] = Ellman's method, average ±SD, triplicate, read-out: AChE Inhibition [IC50 (μM)]
[4] = Ellman's method, average ±SD, triplicate, read-out: BuChE Inhibition [IC50 (μM)]
[5] = read-out: AChE Inhibition [IC50 (μM)]
[6] = read-out: BuChE Inhibition [IC50 (μM)]

T1 sequence (O42275 24-633): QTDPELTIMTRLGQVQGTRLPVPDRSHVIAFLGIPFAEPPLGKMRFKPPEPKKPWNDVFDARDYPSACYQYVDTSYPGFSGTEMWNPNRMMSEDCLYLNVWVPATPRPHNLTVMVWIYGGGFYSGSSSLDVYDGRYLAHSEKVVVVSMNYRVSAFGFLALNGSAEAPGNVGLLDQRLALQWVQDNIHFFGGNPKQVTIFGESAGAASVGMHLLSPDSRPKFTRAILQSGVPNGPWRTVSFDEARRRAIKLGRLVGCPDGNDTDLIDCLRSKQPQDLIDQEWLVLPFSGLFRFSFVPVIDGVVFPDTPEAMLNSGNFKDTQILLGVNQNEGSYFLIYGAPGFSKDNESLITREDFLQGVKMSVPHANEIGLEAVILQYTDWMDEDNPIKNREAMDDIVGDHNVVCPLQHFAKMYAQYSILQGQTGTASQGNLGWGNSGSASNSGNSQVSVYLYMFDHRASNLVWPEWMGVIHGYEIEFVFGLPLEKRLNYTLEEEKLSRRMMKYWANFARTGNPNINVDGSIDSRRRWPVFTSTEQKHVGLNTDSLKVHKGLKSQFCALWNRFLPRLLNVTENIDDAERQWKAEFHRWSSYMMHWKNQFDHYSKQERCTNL

SMILES: O=c1c2ccccc2ncn1Cc1ccc[n+](Cc2cccc(Br)c2)c1 [BOP-1, 1-(3-Bromobenzyl)-3-((4-oxoquinazolin-3(4H)-yl)methyl) pyridin-1-ium bromide]
- IC50 [1, 3]: 5.9 ± 0.07 µM
- IC50 [2]: 6.76 ± 0.04 µM

SMILES: N#Cc1ccc(C[n+]2cccc(Cn3cnc4ccccc4c3=O)c2)cc1 [BOP-4, 1-(4-Cyanobenzyl)-3-((4-oxoquinazolin-3(4H)-yl)methyl) pyridin-1-ium bromide]
- IC50 [1, 3]: > 100 µM
- IC50 [2, 4]: > 100 µM

SMILES: COc1cc2ncn(Cc3ccc[n+](Cc4ccc(C#N)cc4)c3)c(=O)c2cc1OC [BOP-9, 1-(4-Cyanobenzyl)-3-((6,7-dimethoxy-4-oxoquinazolin-3(4H)-yl)methyl) pyridin-1-ium bromide]
- IC50 [1, 3]: > 100 µM
- IC50 [2, 4]: > 100 µM

SMILES: COc1cc2ncn(Cc3ccc[n+](Cc4ccc(F)cc4)c3)c(=O)c2cc1OC [BOP-7, 1-(4-Flourobenzyl)-3-((6,7-dimethoxy-4-oxoquinazolin-3(4H)-yl)methyl) pyridin-1-ium chloride]
- IC50 [1, 5]: 21.92 ± 0.2 µM
- IC50 [2, 6]: > 100 µM

SMILES: COc1cc2ncn(Cc3ccc[n+](Cc4ccccc4)c3)c(=O)c2cc1OC [BOP-10, 1-Benzyl-3-((6,7-dimethoxy-4-oxoquinazolin-3(4H)-yl)methyl) pyridin-1-ium bromide]
- IC50 [1, 3]: 10.1 ± 0.28 µM
- IC50 [2, 4]: 18.8 ± 0.34 µM

SMILES: O=c1c2ccccc2ncn1Cc1ccc[n+](Cc2ccccc2)c1 [BOP-5, 1-Benzyl-3-((4-oxoquinazolin-3(4H)-yl)methyl) pyridin-1-ium bromide]
- IC50 [1, 3]: 41.2 ± 0.62 µM
- IC50 [2, 4]: 12.63 ± 0.11 µM

SMILES: COc1cc2ncn(Cc3ccc[n+](Cc4cccc(Br)c4)c3)c(=O)c2cc1OC [BOP-6, 1-(3-Bromobenzyl)-3-((6,7-dimethoxy-4-oxoquinazolin-3(4H)-yl)methyl) pyridin-1-ium bromide]
- IC50 [1, 3]: 6.77 ± 0.24 µM
- IC50 [2, 4]: 8.77 ± 0.11 µM

SMILES: COc1cc2ncn(Cc3ccc[n+](Cc4ccc(Cl)cc4)c3)c(=O)c2cc1OC.[Cl-] [BOP-8, 1-(4-Chlorobenzyl)-3-((6,7-dimethoxy-4-oxoquinazolin-3(4H)-yl)methyl) pyridin-1-ium chloride]
- IC50 [1]: 1.11 ± 0.09 µM
- BuChE inhibition (result in words) ([2]; Ellman's method): no inhibitory activity; also recorded: no inhibition
- IC50 [2, 4]: > 100 µM

SMILES: O=c1c2ccccc2ncn1Cc1ccc[n+](Cc2ccc(F)cc2)c1 [BOP-3, 1-(4-Flourobenzyl)-3-((4-oxoquinazolin-3(4H)-yl)methyl) pyridin-1-ium chloride]
- IC50 [1, 5]: > 100 µM
- IC50 [2, 6]: 70.43 ± 0.41 µM

SMILES: O=c1c2ccccc2ncn1Cc1ccc[n+](Cc2ccc(Cl)cc2)c1 [BOP-2, 1-(4-Chlorobenzyl)-3-((4-oxoquinazolin-3(4H)-yl)methyl) pyridin-1-ium chloride]
- IC50 [1, 3]: 47.1 ± 0.48 µM
- IC50 [2, 4]: 29 ± 0.43 µM
